Laboratory results as given in ChEMBL document CHEMBL3044555, “Metabolism of thymol and trans-anethole in larvae of Spodoptera litura and Trichoplusia ni (Lepidoptera: Noctuidae)” (J Agric Food Chem, 2004).

Tests used:
[1] = Drug excretion in 80 last instar Trichoplusia ni (cabbage looper) larvae feces assessed as thymol 3-O-beta-glucoside at 0.1 % fwt, po measured after 3 days by TLC analysis; assay type: ADME, organism-based; conditions: in vivo, 72 h
[2] = Drug excretion in 80 last instar Spodoptera litura larvae feces assessed as thymol 3-O-beta-glucoside at 0.1 % fwt, po measured after 3 days by TLC analysis; assay type: ADME, organism-based; conditions: in vivo, 72 h
[3] = Drug excretion in 30 last instar Trichoplusia ni (cabbage looper) larvae feces assessed as thymol 3-O-beta-glucoside at 100 ug administered topically on abdominal terga by TLC analysis; assay type: ADME; conditions: in vivo, topical_or_ocular
[4] = Drug excretion in 80 last instar Trichoplusia ni (cabbage looper) larvae feces assessed as unchanged parent compound at 0.1 % fwt, po measured after 3 days by 1H/13C NMR analysis; assay type: ADME, organism-based; conditions: in vivo, 72 h
[5] = Drug excretion in 80 last instar Trichoplusia ni (cabbage looper) larvae feces assessed as thymol 3-O-beta-glucoside at 0.1 % fwt, po measured after 3 days by 1H/13C NMR analysis; assay type: ADME, organism-based; conditions: in vivo, 72 h
[6] = Drug excretion in 80 last instar Spodoptera litura larvae feces assessed as unchanged parent compound at 0.1 % fwt, po measured after 3 days by 1H/13C analysis; assay type: ADME, organism-based; conditions: in vivo, 72 h
[7] = Drug excretion in 80 last instar Spodoptera litura larvae feces assessed as thymol 3-O-beta-glucoside at 0.1 % fwt, po measured after 3 days by 1H/13C NMR analysis; assay type: ADME, organism-based; conditions: in vivo, 72 h
[8] = Drug excretion in 80 last instar Trichoplusia ni (cabbage looper) larvae feces assessed as side chain methyl group hydroxylated compound on at 0.1 % fwt, po by TLC analysis; assay type: ADME, organism-based; conditions: in vivo
[9] = Drug excretion in 80 last instar Trichoplusia ni (cabbage looper) larvae feces assessed as side chain methyl group hydroxylated compound on at 0.1 % fwt, po by 1H/13C NMR analysis; assay type: ADME, organism-based; conditions: in vivo
[10] = Drug excretion in 80 last instar Spodoptera litura larvae feces assessed as side chain methyl group hydroxylated compound on at 0.1 % fwt, po by TLC analysis; assay type: ADME, organism-based; conditions: in vivo

Row | Drug excretion [1] [mg] | Drug excretion [2] [mg] | Drug excretion [3] | Drug excretion [5] | Drug excretion [6] | Drug excretion [7] | SMILES | Drug excretion [4] | Drug excretion [8] [mg] | Drug excretion [9] | Drug excretion [10] [mg]
1 | 3.2 | 3.2 | Active | Active | Active | Active | Cc1ccc(C(C)C)c(O)c1 [THYMOL] | Active | – | – | –
2 | – | – | – | – | – | – | C/C=C/c1ccc(OC)cc1 [ANETHOLE] | Not Active | 5.8 | Active | 5.8
